The values below come from patent US12404241B2 (Celgene Corporation, priority 2018, dated 2025).

Molecules are shown by their SMILES. Bounds are passed on as bounds.

The target of the assay is T1, AR (Homo sapiens, UniProt P10275).
T1 construct: endogenous in cells; host or cells: VCaP cells
T1 sequence (P10275 1-920): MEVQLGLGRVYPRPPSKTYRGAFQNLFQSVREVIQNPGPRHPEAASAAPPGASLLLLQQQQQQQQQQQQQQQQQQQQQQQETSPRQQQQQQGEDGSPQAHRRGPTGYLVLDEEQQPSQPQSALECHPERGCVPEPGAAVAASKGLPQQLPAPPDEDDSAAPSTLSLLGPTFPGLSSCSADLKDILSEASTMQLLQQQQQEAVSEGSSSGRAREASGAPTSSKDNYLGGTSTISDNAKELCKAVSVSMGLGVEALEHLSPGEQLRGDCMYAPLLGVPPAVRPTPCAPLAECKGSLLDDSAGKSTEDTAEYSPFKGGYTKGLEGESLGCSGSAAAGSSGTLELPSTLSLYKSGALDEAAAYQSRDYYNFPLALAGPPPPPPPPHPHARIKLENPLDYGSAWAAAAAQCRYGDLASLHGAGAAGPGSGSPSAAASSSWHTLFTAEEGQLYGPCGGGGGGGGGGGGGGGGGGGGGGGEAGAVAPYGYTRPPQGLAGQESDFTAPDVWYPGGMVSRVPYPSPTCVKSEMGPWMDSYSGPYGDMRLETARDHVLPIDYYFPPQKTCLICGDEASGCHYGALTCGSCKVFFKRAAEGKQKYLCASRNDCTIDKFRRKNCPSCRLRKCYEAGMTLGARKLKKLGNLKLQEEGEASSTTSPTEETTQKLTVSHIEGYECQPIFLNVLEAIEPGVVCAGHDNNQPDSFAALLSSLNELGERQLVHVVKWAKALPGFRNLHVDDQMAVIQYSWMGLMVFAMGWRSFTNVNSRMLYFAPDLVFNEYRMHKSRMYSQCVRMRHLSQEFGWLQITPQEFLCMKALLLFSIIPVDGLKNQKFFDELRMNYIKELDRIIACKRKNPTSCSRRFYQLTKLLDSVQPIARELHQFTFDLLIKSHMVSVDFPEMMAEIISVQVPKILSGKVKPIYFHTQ
Description: VCAP AR Degradation Assay. It is filed as cell-based. The conditions noted are these: for Y (AR degradation efficiency, % of DMSO control): class symbols *; for DC50: class symbols A-C, read-out: DC50. Summed up:
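AR protein in lysates quantified by sandwich ELISA after 24 h exposure of VCaP cells at 37 °C to 10 concentrations (1:3 steps, 5 μM top, final). Four-parameter logistic fit of percent-of-DMSO levels gave DC50 (50% degradation), EC50 and minimal AR level Y.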

The DC50 is the midpoint of the concentration-degradation curve. Take `C[C@@H]1CN(CCOc2ccc(N3C(=S)N(c4cnc(C#N)c(C(F)(F)F)c4)C(=O)C3(C)C)cc2C(C)(F)F)C[C@H](C)N1CC(=O)Nc1cc(C#N)cc(NC2CCC(=O)NC2=O)c1` (stereo partly drawn) [Example 258, N-(3-cyano-5-(2,6-dioxopiperidin-3-ylamino)phenyl)-2-((2S,6R)-4-(2-(4-(3-(6-cyano-5-(trifluoromethyl)pyridin-3-yl)-5,5-dimethyl-4-oxo-2-thioxoimidazolidin-1-yl)-2-(1,1-difluoroethyl)phenoxy)ethyl)-2.6-dimethylpiperazin-1-yl)acetamide]: the “Y (AR degradation efficiency, % of DMSO control)” value is given as “* (0<Y<=25%)” and the DC50 was less than 0.1 µM.

Regarding `C[C@@H]1CN(CCOc2ccc(N3C(=S)N(c4ccc(C#N)c(C(F)(F)F)c4)C(=O)C3(C)C)cc2C2CCC2)C[C@H](C)N1CC(=O)Nc1cccc(NC2CCC(=O)NC2=O)c1` (stereo partly drawn) [Example 259, 2-((2R,6S)-4-(2-(4-(3-(4-cyano-3-(trifluoromethyl)phenyl)-5,5-dimethyl-4-oxo-2-thioxoimidazolidin-1-yl)-2-cyclobutylphenoxy)ethyl)-2,6-dimethylpiperazin-1-yl)-N-(3-(2,6-dioxopiperidin-3-ylamino)phenyl)acetamide], the “Y (AR degradation efficiency, % of DMSO control)” value is “* (0<Y<=25%)” and the DC50 is less than 0.1 µM.

In the case of `CCc1cc(N2C(=S)N(c3ccc(C#N)c(C(F)(F)F)c3)C(=O)C2(C)C)ccc1OCCN1CCN(CC(=O)Nc2cccc(NC3CCC(=O)NC3=O)c2)[C@H](CC)C1` (stereo partly drawn) [Example 260, 2-((R)-4-(2-(4-(3-(4-cyano-3-(trifluoromethyl)phenyl)-5,5-dimethyl-4-oxo-2-thioxoimidazolidin-1-yl)-2-ethylphenoxy)ethyl)-2-ethylpiperazin-1-yl)-N-(3-(2,6-dioxopiperidin-3-ylamino)phenyl)acetamide], the “Y (AR degradation efficiency, % of DMSO control)” value was “* (0<Y<=25%)” and the DC50 is 0.1 to 0.5 µM.

On to `CC[C@@H]1CN(CCOc2ccc(N3C(=S)N(c4ccc(C#N)c(C(F)(F)F)c4)C(=O)C3(C)C)cc2C2CC2)CCN1CC(=O)Nc1cccc(NC2CCC(=O)NC2=O)c1` (stereo partly drawn) [Example 261, 2-((R)-4-(2-(4-(3-(4-cyano-3-(trifluoromethyl)phenyl)-5,5-dimethyl-4-oxo-2-thioxoimidazolidin-1-yl)-2-cyclopropylphenoxy)ethyl)-2-ethylpiperazin-1-yl)-N-(3-(2,6-dioxopiperidin-3-ylamino)phenyl)acetamide], for which the “Y (AR degradation efficiency, % of DMSO control)” value is given as “** (25%<Y<=35%)” and the DC50 was 0.1 to 0.5 µM.

As for `CC[C@@H]1CN(CCOc2ccc(N3C(=S)N(c4cnc(C#N)c(C(F)(F)F)c4)C(=O)C34CCC4)cc2C2CC2)CCN1CC(=O)Nc1cccc(NC2CCC(=O)NC2=O)c1` (stereo partly drawn) [Example 262, 2-((R)-4-(2-(4-(7-(6-cyano-5-(trifluoromethyl)pyridin-3-yl)-8-oxo-6-thioxo-5,7-diazaspiro[3.4]octan-5-yl)-2-cyclopropylphenoxy)ethyl)-2-ethylpiperazin-1-yl)-N-(3-(2,6-dioxopiperidin-3-ylamino)phenyl)acetamide], the “Y (AR degradation efficiency, % of DMSO control)” value is “* (0<Y<=25%)” and the 50% degradation concentration (DC50) was in the range of 0.1 to 0.5 µM.

With `CC[C@H]1CN(CCOc2ccc(N3C(=S)N(c4ccc(C#N)c(C(F)(F)F)c4)C(=O)C3(C)C)cc2C2CC2)CCN1CC(=O)Nc1cccc(NC2CCC(=O)NC2=O)c1` (stereo partly drawn) [Example 263, 2-((S)-4-(2-(4-(3-(4-cyano-3-(trifluoromethyl)phenyl)-5,5-dimethyl-4-oxo-2-thioxoimidazolidin-1-yl)-2-cyclopropylphenoxy)ethyl)-2-ethylpiperazin-1-yl)-N-(3-(2,6-dioxopiperidin-3-ylamino)phenyl)acetamide], the “Y (AR degradation efficiency, % of DMSO control)” value is given as “* (0<Y<=25%)” and the DC50 was less than 0.1 µM.

As for `CCc1cc(N2C(=S)N(c3ccc(C#N)c(C(F)(F)F)c3)C(=O)C23CCCCC3)ccc1OCCN1C[C@@H](C)N(CC(=O)Nc2cccc(NC3CCC(=O)NC3=O)c2)[C@@H](C)C1` (stereo partly drawn) [Example 264, 2-((2S,6R)-4-(2-(4-(3-(4-cyano-3-(trifluoromethyl)phenyl)-4-oxo-2-thioxo-1,3-diazaspiro[4.5]decan-1-yl)-2-ethylphenoxy)ethyl)-2,6-dimethylpiperazin-1-yl)-N-(3-(2,6-dioxopiperidin-3-ylamino)phenyl)acetamide], the “Y (AR degradation efficiency, % of DMSO control)” value is reported as “* (0<Y<=25%)” and the half-maximal degradation concentration (DC50) was less than 0.1 µM.

As to `C[C@@H]1CN(CCOc2ccc(N3C(=S)N(c4cnc(C#N)c(C(F)(F)F)c4)C(=O)C34CCC4)cc2C(C)(F)F)C[C@H](C)N1CC(=O)Nc1cccc(NC2CCC(=O)NC2=O)c1` (stereo partly drawn) [Example 265, 2-((2S,6R)-4-(2-(4-(7-(6-cyano-5-(trifluoromethyl)pyridin-3-yl)-8-oxo-6-thioxo-5,7-diazaspiro[3.4]octan-5-yl)-2-(1,1-difluoroethyl)phenoxy)ethyl)-2,6-dimethylpiperazin-1-yl)-N-(3-(2,6-dioxopiperidin-3-ylamino)phenyl)acetamide], the “Y (AR degradation efficiency, % of DMSO control)” value is recorded as “* (0<Y<=25%)” and the DC50 was less than 0.1 µM.

For the compound `C[C@@H]1CN(CCOc2ccc(N3C(=S)N(c4ccc(C#N)c(C(F)(F)F)c4)C(=O)C34CCCC4)cc2C2CC2)C[C@H](C)N1CC(=O)Nc1cccc(NC2CCC(=O)NC2=O)c1` (stereo partly drawn) [Example 266, 2-((2S,6R)-4-(2-(4-(3-(4-cyano-3-(trifluoromethyl)phenyl)-4-oxo-2-thioxo-1,3-diazaspiro[4.4]nonan-1-yl)-2-cyclopropylphenoxy)ethyl)-2,6-dimethylpiperazin-1-yl)-N-(3-(2,6-dioxopiperidin-3-ylamino)phenyl)acetamide], the “Y (AR degradation efficiency, % of DMSO control)” value was “* (0<Y<=25%)” and the DC50 is less than 0.1 µM.

Turning to `CCc1cc(N2C(=S)N(c3ccc(C#N)c(C(F)(F)F)c3)C(=O)C23CCCC3)ccc1OCCN1C[C@@H](C)N(CC(=O)Nc2cccc(NC3CCC(=O)NC3=O)c2)[C@@H](C)C1` (stereo partly drawn) [Example 267, 2-((2S,6R)-4-(2-(4-(3-(4-cyano-3-(trifluoromethyl)phenyl)-4-oxo-2-thioxo-1,3-diazaspiro[4.4]nonan-1-yl)-2-ethylphenoxy)ethyl)-2,6-dimethylpiperazin-1-yl)-N-(3-(2,6-dioxopiperidin-3-ylamino)phenyl)acetamide], the “Y (AR degradation efficiency, % of DMSO control)” value is listed as “* (0<Y<=25%)” and the 50% degradation concentration (DC50) is less than 0.1 µM.

In the case of `C[C@@H]1CN(CCOc2ccc(N3C(=S)N(c4cnc(C#N)c(C(F)(F)F)c4)C(=O)C3(C)C)cc2C2CCC2)C[C@H](C)N1CC(=O)Nc1cccc(NC2CCC(=O)NC2=O)c1` (stereo partly drawn) [Example 268, 2-((2R,6S)-4-(2-(4-(3-(6-cyano-5-(trifluoromethyl)pyridin-3-yl)-5,5-dimethyl-4-oxo-2-thioxoimidazolidin-1-yl)-2-cyclobutylphenoxy)ethyl)-2,6-dimethylpiperazin-1-yl)-N-(3-(2,6-dioxopiperidin-3-ylamino)phenyl)acetamide], the “Y (AR degradation efficiency, % of DMSO control)” value was “** (25%<Y<=35%)” and the DC50 is less than 0.1 µM.

Take `C[C@@H]1CN(CCOc2ccc(N3C(=S)N(c4ccc(C#N)c(Cl)c4)C(=O)C3(C)C)cc2C(C)(F)F)C[C@H](C)N1CC(=O)Nc1cccc(NC2CCC(=O)NC2=O)c1` (stereo partly drawn) [Example 269, 2-((2S,6R)-4-(2-(4-(3-(3-chloro-4-cyanophenyl)-5,5-dimethyl-4-oxo-2-thioxoimidazolidin-1-yl)-2-(1,1-difluoroethyl)phenoxy)ethyl)-2,6-dimethylpiperazin-1-yl)-N-(3-(2,6-dioxopiperidin-3-ylamino)phenyl)acetamide]: the “Y (AR degradation efficiency, % of DMSO control)” value was “* (0<Y<=25%)” and the DC50 is less than 0.1 µM.

With `CCc1c(OCCN2C[C@@H](C)N(CC(=O)Nc3cccc(NC4CCC(=O)NC4=O)c3)[C@@H](C)C2)ccc(N2C(=S)N(c3ccc(C#N)c(C(F)(F)F)c3)C(=O)C2(C)C)c1C` (stereo partly drawn) [Example 270, 2-((2R,6S)-4-(2-(4-(3-(4-cyano-3-(trifluoromethyl)phenyl)-5,5-dimethyl-4-oxo-2-thioxoimidazolidin-1-yl)-2-ethyl-3-methylphenoxy)ethyl)-2,6-dimethylpiperazin-1-yl)-N-(3-(2,6-dioxopiperidin-3-ylamino)phenyl)acetamide], the “Y (AR degradation efficiency, % of DMSO control)” value was “** (25%<Y<=35%)” and the DC50 was 0.1 to 0.5 µM.
